Source: patent US20100305068A1, “COMPOUNDS AND METHODS FOR MODULATING PROTEIN TRAFFICKING” (priority 2006, published 2010)
Where two headings read alike, the source gives them in different places.

Test system: pdr5 ypt1^ts cells
Experiment: microbe, parasite or virus in culture
Assay type: cell-based, yeast
Details: 37° C.; for minimal effective concentration / optical density, ypt1-ts, 0.39 / optical density, ypt1-ts, 0.78 / optical density, ypt1-ts, 1.56 / optical density, ypt1-ts, 3.13 / optical density, ypt1-ts, 6.25 / optical density, ypt1-ts, 12.5 / optical density, ypt1-ts, 25: Table 2; for minimal effective concentration: lowest concentration tested giving growth above the 0 μM background, read-out: ypt1-ts MRC (minimal rescue concentration); for optical density, ypt1-ts, 0.39: 0.39 μM compound; for optical density, ypt1-ts, 0.39 / optical density, ypt1-ts, 0.78 / optical density, ypt1-ts, 1.56 / optical density, ypt1-ts, 3.13 / optical density, ypt1-ts, 6.25 / optical density, ypt1-ts, 12.5 / optical density, ypt1-ts, 25: background (0 μM) 0.058; for optical density, ypt1-ts, 0.78: 0.78 μM compound; for optical density, ypt1-ts, 1.56: 1.56 μM compound; for optical density, ypt1-ts, 3.13: 3.13 μM compound; for optical density, ypt1-ts, 6.25: 6.25 μM compound; for optical density, ypt1-ts, 12.5: 12.5 μM compound; for optical density, ypt1-ts, 25: 25 μM compound; for optical density, 3.13 uM / optical density, 12.5 uM / optical density, 50 uM: Table 3, background (0 uM) 0.077; for optical density, 3.13 uM: 3.13 uM compound; for optical density, 12.5 uM: 12.5 uM compound; for optical density, 50 uM: 50 uM compound
Outline: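 Whole-cell yeast growth-rescue screen: pdr5 ypt1^ts cells (efflux pump inactivated), growth-arrested at 37° C., cultured with compounds at 37° C. Restoration of growth read by optical density.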

Row | Molecule | minimal effective concentration (Saccharomyces cerevisiae) | optical density, ypt1-ts, 0.39 | optical density, ypt1-ts, 0.78 | optical density, ypt1-ts, 1.56 | optical density, ypt1-ts, 3.13 | optical density, ypt1-ts, 6.25 | optical density, ypt1-ts, 12.5 | optical density, ypt1-ts, 25 | optical density, 3.13 uM | optical density, 12.5 uM | optical density, 50 uM | minimal effective concentration
1 | C=C1C2CC[C@@]3(C)[C@H](c4ccoc4)OC(=O)C[C@]13O[C@H]1CC(=O)C(C)(C)C(CC(=O)OC)C21C (stereo partly shown) [[…], METHYL ESTER] | 3.13 µM | 0.119 | 0.087 | 0.107 | 0.21 | 0.53 | 0.56 | 0.577 | – | – | – | –
2 | CC(CCC(=O)O)[C@H]1CCC2C3CC[C@H]4C[C@H](O)CC[C@]4(C)C3C[C@H](O)[C@@]21C (stereo partly shown) [DEOXY- CHOLIC ACID, reference compound] | – | – | – | – | – | – | – | – | 0.233 | 0.481 | 0.133 | –
3 | CC(=O)O[C@]1(C(C)=O)CC[C@H]2[C@@H]3C=C(Cl)C4=CC(=O)CC[C@]4(C)[C@H]3CC[C@@]21C [CHLORMADINONE ACETATE, reference compound] | 12.5 µM | 0.193 | 0.078 | 0.088 | 0.112 | 0.11 | 0.2 | 0.296 | – | – | – | –
4 | O=c1c2ccccc2oc2ccc(O)cc12 [2-HYDROXY- XANTHONE] | – | – | – | – | – | – | – | – | 0.107 | 0.257 | 0.571 | –
5 | O=c1c2ccccc2oc2ccccc12 [XANTHONE] | 6.25 µM | 0.096 | 0.072 | 0.093 | 0.109 | 0.152 | 0.445 | 0.598 | – | – | – | –
6 | COc1ccc(C2CC(=O)c3ccc(OC)cc3O2)cc1 (stereo not shown) [LIQUIRITI- GENIN DIMETHYL ETHER] | – | – | – | – | – | – | – | – | 0.086 | 0.13 | 0.364 | –
7 | C[n+]1c2cc(N)ccc2cc2ccc(N)cc21.[Cl-] [ACRIFLAV- INIUM HYDRO- CHLORIDE, reference compound] | – | – | – | – | – | – | – | – | 0.126 | 0.229 | 0.151 | –
8 | AKLAVINE HYDROCHLORIDE | – | 0.095 | 0.136 | 0.078 | 0.088 | 0.101 | 0.145 | 0.246 | – | – | – | 12.5 µM
9 | COc1ccc2c(=O)cc(-c3ccccc3OC)oc2c1 [7,2′- DIMETHOXY- FLAVONE] | – | – | – | – | – | – | – | – | 0.098 | 0.156 | 0.3 | –
10 | CC(C)=CCOc1c2occc2cc2ccc(=O)oc12 [IMPERATORIN] | 12.5 µM | 0.084 | 0.064 | 0.066 | 0.073 | 0.082 | 0.147 | 0.244 | – | – | – | –
11 | COc1ccc(-c2cc(=O)c3ccccc3o2)cc1 [4′-METHOXYFLAVONE] | 1.56 µM | 0.111 | 0.077 | 0.136 | 0.474 | 0.567 | 0.556 | 0.557 | – | – | – | –
12 | CN(C)C(=O)Nc1ccc(Cl)c(Cl)c1 [DIURON] | 25 µM | 0.082 | 0.073 | 0.087 | 0.081 | 0.095 | 0.101 | 0.132 | – | – | – | –
13 | CC1(C)C(=O)C=C[C@]2(C)C3CC[C@@]4(C)[C@H](c5ccoc5)C[C@H]5O[C@]54C3[C@H](O)CC12 (stereo partly shown) [TRI- CHILENONE] | – | – | – | – | – | – | – | – | 0.119 | 0.283 | 0.462 | –
14 | CCN(CC)CCNC(=O)c1cc(Cl)c(N)cc1OC.Cl [METO- […]- CHLORIDE, reference compound] | – | – | – | – | – | – | – | – | 0.099 | 0.158 | 0.555 | –
15 | CC(=O)O[C@@H]1CC2C(C)(C)CCC[C@]2(C)C2CC[C@]3(C)C(=CC(=O)O[C@H]3c3ccoc3)[C@@]21C (stereo partly shown) [DEOXO- DEOXY- DIHYDRO- GEDUNIN] | – | – | – | – | – | – | – | – | 0.245 | 0.479 | 0.452 | –
16 | CC(C)=CCOc1cc2oc(=O)ccc2cc1O [PRENYLETIN] | 25 µM | 0.087 | 0.072 | 0.07 | 0.087 | 0.09 | 0.121 | 0.292 | – | – | – | –
17 | CC1(C)C(=O)C=C[C@@]2(C)C1=C(O)C(=O)[C@]1(C)[C@@H]2CC[C@@]2(C)[C@H](c3ccoc3)C[C@H]3O[C@]321 [CEDRELONE] | 1.56 µM | 0.221 | 0.124 | 0.264 | 0.49 | 0.532 | 0.541 | 0.496 | – | – | – | –
18 | CC(C)C1=CC2=CC[C@H]3[C@](C)(CO)CCC[C@]3(C)C2CC1 (stereo partly shown) [ABIETANOL] | – | – | – | – | – | – | – | – | 0.102 | 0.274 | 0.29 | –
19 | CC(=O)O[C@@H]1CC2C(C)(C)C(=O)C=C[C@]2(C)C2CC[C@]3(C)C(=CC(=O)O[C@H]3c3ccoc3)[C@@]21C (stereo partly shown) [DEOXY- GEDUNIN] | – | – | – | – | – | – | – | – | 0.092 | 0.141 | 0.328 | –
20 | CC1(C)C(=O)C=C[C@@]2(C)C1CC(=O)[C@@]1(C)C3=CC(=O)O[C@@H](c4ccoc4)[C@]3(C)CCC12 (stereo partly shown) [7-DEACETOXY- 7-OXODEOXY- GEDUNIN] | – | – | – | – | – | – | – | – | 0.335 | 0.604 | 0.67 | –
21 | CC(C)c1ccc2c(c1)CCC1[C@](C)(CN)CCC[C@]21C.O=S(=O)(O)O (stereo partly shown) [18-AMINO ABIETA- 8,11,13- TRIENE SULFATE] | – | – | – | – | – | – | – | – | 0.055 | 0.06 | 0.378 | –
22 | CC(=O)Nc1ccc(OC(=O)c2ccccc2O)cc1 [ACETAMINOSALOL, reference compound] | 12.5 µM | 0.085 | 0.078 | 0.083 | 0.085 | 0.103 | 0.127 | 0.198 | – | – | – | –
23 | CC1(C)C2CC(=O)O[C@@]3(C)C4=CC(=O)O[C@@H](c5ccoc5)[C@]4(C)CCC3[C@@]2(C)C=C[C@H]1O (stereo partly shown) [DEOXY- ANDIROBIN LACTONE] | – | – | – | – | – | – | – | – | 0.723 | 0.678 | 0.642 | –
24 | COc1c2occc2cc2c(=O)c3c(oc12)COc1cc2c(cc1-3)OCO2 [DEHYDRO- PACHYRRHIZONE] | 12.5 µM | 0.1 | 0.072 | 0.088 | 0.11 | 0.124 | 0.149 | 0.211 | – | – | – | –
